Data set [1] is described as follows: Gravimetric vapour sorption (GVS) water uptake. The data set is classed as physicochemical. The conditions noted are these: at 80% RH (±0.3%), 25° C. The method, then:
• XRPD—PANalytical CubiX PRO machine in Ø-Ø configuration over the scan range 2° to 40° 2Ø with 100-second exposure per 0.02° increment. The X-rays were generated by a copper long-fine focus tube operated at 45 kV and 40 mA. The wavelength of the copper X-rays was 1.5418 Å. The Data was collected on zero background holders on which ˜2 mg of the compound was placed. The holder was made from a single crystal of silicon, which had been cut along a non-diffracting plane and then polished on an optically flat finish. The X-rays incident upon this surface were negated by Bragg extinction. • DSC thermograms were measured using a TA Q1000 Differential Scanning Calorimeter, with aluminium pans and pierced lids. The sample weights varied between 0.5 to 5 mg. The procedure was carried out under a flow of nitrogen gas (50 ml/min) and the temperature studied from 25 to 300° C. at a constant rate of temperature increase of 10° C. per minute. • TGA thermograms were measured using a TA Q500 Thermogravimetric Analyser, with platinum pans. The sample weights varied between 1 and 5 mg. The procedure was carried out under a flow of nitrogen gas (60 ml/min) and the temperature studied from 25 to 200° C. at a constant rate of temperature increase of 10° C. per minute. • GVS profiles were measured using a Dynamic Vapour Sorption DVS-1 instrument. […]

Data set [2] is described as follows: Evaluation of deaggregation properties of micronised material (Fine Particle Fraction). The data set is classed as physicochemical. The conditions noted are these: across relative humidity 0-75% RH. An excerpt: ‘Salt Form A’ was Micronised in a 50 mm jet mill, with ejector pressure 5 bar and milling pressure 1.5-2 bar, giving (90% yield). Particle size of the micronised material as determined by Malvern Laser Diffraction with dry powder feeder was d(0.1) 0.77 μm: d(0.5), 1.45μ: d(0.9): 2.65 μm.

The target in data set [3] is human muscarinic receptors (M3) (Homo sapiens, UniProt P20309). In words: Muscarinic Receptor Radioligand Binding Assay (SPA, [3H]-NMS). The conditions noted are these: human M3 membranes on SPA beads, 16 hours incubation, read-out: M3 binding pIC50 (converted). The method, then: The inhibitory effects of compounds of the napadisylate salt were determined by a Muscarinic Receptor Radioligand Binding Assay. Radioligand binding studies were carried out in Scintillation Proximity Assay (SPA) format utilising [3H]-N-methyl scopolamine ([3H]-NMS) and cell membranes expressing the human muscarinic receptors (M2 or M3) which were coated onto SPA beads. Coated SPA beads were incubated in 96-well plates in HEPES buffer with [3H]-NMS and M3 antagonist at various concentrations for 16 hours. Radioligand binding was then counted using a Wallac Microbeta scintillation counter.
Chain of human muscarinic receptors (M3) (P20309 whole entry): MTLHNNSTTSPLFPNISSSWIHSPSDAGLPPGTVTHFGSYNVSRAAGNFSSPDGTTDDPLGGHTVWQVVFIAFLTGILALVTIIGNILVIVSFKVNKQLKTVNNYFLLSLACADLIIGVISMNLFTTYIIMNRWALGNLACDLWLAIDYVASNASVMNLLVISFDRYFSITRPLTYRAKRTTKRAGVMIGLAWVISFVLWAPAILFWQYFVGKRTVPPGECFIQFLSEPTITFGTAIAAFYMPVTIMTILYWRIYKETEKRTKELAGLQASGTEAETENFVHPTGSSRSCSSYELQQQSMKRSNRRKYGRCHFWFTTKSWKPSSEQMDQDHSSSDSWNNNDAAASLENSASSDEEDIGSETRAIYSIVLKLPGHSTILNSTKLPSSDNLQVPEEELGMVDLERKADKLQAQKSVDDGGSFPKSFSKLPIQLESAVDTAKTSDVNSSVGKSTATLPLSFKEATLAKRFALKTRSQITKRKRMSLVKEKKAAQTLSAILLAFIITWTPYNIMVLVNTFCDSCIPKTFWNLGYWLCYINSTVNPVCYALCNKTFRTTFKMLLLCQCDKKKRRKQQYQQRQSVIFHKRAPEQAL

We go through two molecules from patent US7846955B2, “Salt” (AstraZeneca AB, priority 2007, dated 2010).

Counter-ions that a name gives are not always drawn. A value given as a limit tells only on which side of the number the result lay.

As to `C[N+](C)(CCOCc1ccc(Cl)cc1)Cc1cnc([C@](O)(c2ccccc2)C2CCCCC2)o1` [Salt Form A, [2-(4-chloro-benzyloxy)-ethyl]-[2-((R)-cyclohexyl-hydroxy-phenyl-methyl)-oxazol-5-ylmethyl]-dimethyl-ammonium hemi-naphthalene-1,5-disulfonate], the GVS weight increase result in data set [1] was “less than 0.5 % w/w”. The “Fine Particle Fraction (FPF)” value in data set [2] is more than 60%.

On to `C[N+](C)(CCOCc1ccc(Cl)cc1)Cc1cnc([C@](O)(c2ccccc2)C2CCCCC2)o1` [[2-(4-chloro-benzyloxy)-ethyl]-[2-((R)-cyclohexyl-hydroxy-phenyl-methyl)-oxazol-5-ylmethyl]-dimethyl-ammonium], for which, in data set [3], the IC50 is 0.158 nM.
